The supplement of paper PMC10307832

Experiments:
Assay in all cases: relative viability (nuclei count vs DMSO), 5 days (fraction); higher = more cells survive
NCI-H1734 = system: NCI-H1734
How it was run: (§1)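 A single step with final 0.05% Triton X-100, 1% formaldehyde and 1 ug/ml Hoechst fixed the cells and stained nuclei 5 days after treatment. Lung cancer cell lines in 1536-well plates had been treated by pin tool the day after seeding with one drug alone or a fixed anchor-drug dose plus five library-drug doses (not always all listed) in √10 steps, and nuclei were counted on 4× images. Relative viability is the ratio of nuclei in treated wells to nuclei in vehicle wells, taken as the median of duplicate plates.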

BEN = system: BEN
How it was run: as §1

LK-2 = system: LK-2
How it was run: as §1

COR-L 105 = system: COR-L 105
How it was run: as §1

NCI-H358 = system: NCI-H358
How it was run: as §1

NCI-H727 = system: NCI-H727
How it was run: as §1

NCI-H1792 = system: NCI-H1792
How it was run: as §1

SK-MES-1 = system: SK-MES-1
How it was run: as §1

LOU-NH91 = system: LOU-NH91
How it was run: as §1

NCI-H2126 = system: NCI-H2126
How it was run: as §1

EMC-BAC-2 = system: EMC-BAC-2
How it was run: as §1

NCI-H2087 = system: NCI-H2087
How it was run: as §1

EKVX = system: EKVX
How it was run: as §1

HCC-78 = system: HCC-78
How it was run: as §1

EPLC-272H = system: EPLC-272H
How it was run: as §1

LCLC-97TM1 = system: LCLC-97TM1
How it was run: as §1

RERF-LC-KJ = system: RERF-LC-KJ
How it was run: as §1

LU99A = system: LU99A
How it was run: as §1

NCI-H1944 = system: NCI-H1944
How it was run: as §1

SW 1573 = system: SW 1573
How it was run: as §1

HCC-827 = system: HCC-827
How it was run: as §1

NCI-H1650 = system: NCI-H1650
How it was run: as §1

ChaGo-K-1 = system: ChaGo-K-1
How it was run: as §1

`O=c1[nH]c2ccccc2n1C1CCN(CCCC(c2ccc(F)cc2)c2ccc(F)cc2)CC1` [Pimozide] + CS(=O)(=O)N1CCN(Cc2cc3nc(-c4cccc5[nH]ncc45)nc(N4CCOCC4)c3s2)CC1 [Pictilisib] (partner 1 µM) gave a relative viability (NCI-H1734; first compound 0.08 µM) of 0.45, a relative viability (NCI-H1734; first compound 0.253 µM) of 0.444 and a relative viability (NCI-H1734; first compound 0.8 µM) of 0.489. The relative viability (NCI-H1734; first compound 2.53 µM) was 0.411, the relative viability (NCI-H1734; first compound 8 µM) was 0.46 and the relative viability (BEN; first compound 0.08 µM) was 0.627. For the same compound, the relative viability (BEN; first compound 0.253 µM) was 0.565, the relative viability (BEN; first compound 0.8 µM) was 0.583 and the relative viability (BEN; first compound 2.53 µM) was 0.542. The relative viability (BEN; first compound 8 µM) was 0.595, the relative viability (LK-2; first compound 0.08 µM) was 0.556 and the relative viability (LK-2; first compound 0.253 µM) was 0.605. It also gave a relative viability (LK-2; first compound 0.8 µM) of 0.454, a relative viability (LK-2; first compound 2.53 µM) of 0.547 and a relative viability (LK-2; first compound 8 µM) of 0.553. The relative viability (COR-L 105; first compound 0.253 µM) was 0.507, the relative viability (COR-L 105; first compound 0.8 µM) was 0.449 and the relative viability (COR-L 105; first compound 2.53 µM) was 0.338. It also gave a relative viability (COR-L 105; first compound 8 µM) of 0.353, a relative viability (NCI-H358; first compound 0.08 µM) of 0.292 and a relative viability (NCI-H358; first compound 0.253 µM) of 0.324. For the same compound, the relative viability (NCI-H358; first compound 0.8 µM) was 0.384, the relative viability (NCI-H358; first compound 2.53 µM) was 0.356 and the relative viability (NCI-H358; first compound 8 µM) was 0.396. It also gave a relative viability (NCI-H727; first compound 0.08 µM) of 0.367, a relative viability (NCI-H727; first compound 0.253 µM) of 0.357 and a relative viability (NCI-H727; first compound 0.8 µM) of 0.389. It also gave a relative viability (NCI-H727; first compound 2.53 µM) of 0.308, a relative viability (NCI-H727; first compound 8 µM) of 0.434 and a relative viability (NCI-H1792; first compound 0.08 µM) of 0.274. It also gave a relative viability (NCI-H1792; first compound 0.253 µM) of 0.292, a relative viability (NCI-H1792; first compound 0.8 µM) of 0.25 and a relative viability (NCI-H1792; first compound 2.53 µM) of 0.26. It also gave a relative viability (NCI-H1792; first compound 8 µM) of 0.314, a relative viability (SK-MES-1; first compound 0.08 µM) of 0.305 and a relative viability (SK-MES-1; first compound 0.253 µM) of 0.308. It also gave a relative viability (SK-MES-1; first compound 0.8 µM) of 0.36, a relative viability (SK-MES-1; first compound 2.53 µM) of 0.38 and a relative viability (SK-MES-1; first compound 8 µM) of 0.341. It also gave a relative viability (LOU-NH91; first compound 0.08 µM) of 0.476, a relative viability (LOU-NH91; first compound 0.253 µM) of 0.489 and a relative viability (LOU-NH91; first compound 0.8 µM) of 0.521. It also gave a relative viability (LOU-NH91; first compound 2.53 µM) of 0.546, a relative viability (LOU-NH91; first compound 8 µM) of 0.509 and a relative viability (NCI-H2126; first compound 0.08 µM) of 0.437. It also gave a relative viability (NCI-H2126; first compound 0.253 µM) of 0.468, a relative viability (NCI-H2126; first compound 0.8 µM) of 0.512 and a relative viability (NCI-H2126; first compound 2.53 µM) of 0.499. The relative viability (NCI-H2126; first compound 8 µM) was 0.539, the relative viability (EMC-BAC-2; first compound 0.08 µM) was 0.486 and the relative viability (EMC-BAC-2; first compound 0.253 µM) was 0.51. It also gave a relative viability (EMC-BAC-2; first compound 0.8 µM) of 0.549, a relative viability (EMC-BAC-2; first compound 2.53 µM) of 0.532 and a relative viability (EMC-BAC-2; first compound 8 µM) of 0.54. The relative viability (NCI-H2087; first compound 0.08 µM) was 0.9, the relative viability (NCI-H2087; first compound 0.253 µM) was 0.994 and the relative viability (NCI-H2087; first compound 0.8 µM) was 0.824. The relative viability (NCI-H2087; first compound 2.53 µM) was 0.784, the relative viability (NCI-H2087; first compound 8 µM) was 0.62 and the relative viability (EKVX; first compound 0.253 µM) was 0.349. For the same compound, the relative viability (EKVX; first compound 0.8 µM) was 0.431, the relative viability (EKVX; first compound 2.53 µM) was 0.409 and the relative viability (EKVX; first compound 8 µM) was 0.401. For the same compound, the relative viability (HCC-78; first compound 0.08 µM) was 0.214, the relative viability (HCC-78; first compound 0.253 µM) was 0.244 and the relative viability (HCC-78; first compound 0.8 µM) was 0.187. It also gave a relative viability (HCC-78; first compound 2.53 µM) of 0.19, a relative viability (HCC-78; first compound 8 µM) of 0.202 and a relative viability (EPLC-272H; first compound 0.08 µM) of 0.302. For the same compound, the relative viability (EPLC-272H; first compound 0.253 µM) was 0.269, the relative viability (EPLC-272H; first compound 0.8 µM) was 0.273 and the relative viability (EPLC-272H; first compound 2.53 µM) was 0.258. For the same compound, the relative viability (EPLC-272H; first compound 8 µM) was 0.238, the relative viability (LCLC-97TM1; first compound 0.08 µM) was 0.194 and the relative viability (LCLC-97TM1; first compound 0.253 µM) was 0.183. The relative viability (LCLC-97TM1; first compound 0.8 µM) was 0.225, the relative viability (LCLC-97TM1; first compound 2.53 µM) was 0.18 and the relative viability (LCLC-97TM1; first compound 8 µM) was 0.119. For the same compound, the relative viability (RERF-LC-KJ; first compound 0.08 µM) was 0.597, the relative viability (RERF-LC-KJ; first compound 0.253 µM) was 0.524 and the relative viability (RERF-LC-KJ; first compound 0.8 µM) was 0.522. The relative viability (RERF-LC-KJ; first compound 2.53 µM) was 0.505, the relative viability (RERF-LC-KJ; first compound 8 µM) was 0.452 and the relative viability (LU99A; first compound 0.08 µM) was 0.344. It also gave a relative viability (LU99A; first compound 0.253 µM) of 0.284, a relative viability (LU99A; first compound 0.8 µM) of 0.314 and a relative viability (LU99A; first compound 2.53 µM) of 0.302. For the same compound, the relative viability (LU99A; first compound 8 µM) was 0.334, the relative viability (NCI-H1944; first compound 0.08 µM) was 0.331 and the relative viability (NCI-H1944; first compound 0.253 µM) was 0.337. It also gave a relative viability (NCI-H1944; first compound 0.8 µM) of 0.325, a relative viability (NCI-H1944; first compound 2.53 µM) of 0.35 and a relative viability (NCI-H1944; first compound 8 µM) of 0.33. The relative viability (SW 1573; first compound 0.08 µM) was 0.534, the relative viability (SW 1573; first compound 0.253 µM) was 0.462 and the relative viability (SW 1573; first compound 0.8 µM) was 0.47. The relative viability (SW 1573; first compound 2.53 µM) was 0.449, the relative viability (SW 1573; first compound 8 µM) was 0.416 and the relative viability (HCC-827; first compound 0.253 µM) was 1.02. For the same compound, the relative viability (HCC-827; first compound 0.8 µM) was 0.986, the relative viability (HCC-827; first compound 2.53 µM) was 1.04 and the relative viability (HCC-827; first compound 8 µM) was 1.06. It also gave a relative viability (NCI-H1650; first compound 0.08 µM) of 0.589, a relative viability (NCI-H1650; first compound 0.253 µM) of 0.489 and a relative viability (NCI-H1650; first compound 0.8 µM) of 0.461. It also gave a relative viability (NCI-H1650; first compound 2.53 µM) of 0.547, a relative viability (NCI-H1650; first compound 8 µM) of 0.182 and a relative viability (ChaGo-K-1; first compound 0.08 µM) of 0.636. It also gave a relative viability (ChaGo-K-1; first compound 0.253 µM) of 0.614, a relative viability (ChaGo-K-1; first compound 0.8 µM) of 0.694 and a relative viability (ChaGo-K-1; first compound 2.53 µM) of 0.762. It also gave a relative viability (ChaGo-K-1; first compound 8 µM) of 0.569.
